One assay deals with TNFα. Put plainly: Cot Monocyte TNFα Cell Based Assay. Particulars: Homo sapiens, Monocyte, read-out: EC50 TNF, LPS-stimulated human monocytes, TNFα.
The target of another assay is Human Cot (Homo sapiens (Human), UniProt P41279). Nature of the assay: High Throughput Cot Biochemical Assay. To be noted: IC50 HTRF, Cot HTRF (TR-FRET) biochemical assay.

By EC50 is commonly meant the concentration at which the effect is half-maximal. As usually defined, the IC50 is the concentration at which inhibition is half-maximal. The low end stands for higher potency, the high end for lower potency.

Human Cot, sequence (P41279 30-397): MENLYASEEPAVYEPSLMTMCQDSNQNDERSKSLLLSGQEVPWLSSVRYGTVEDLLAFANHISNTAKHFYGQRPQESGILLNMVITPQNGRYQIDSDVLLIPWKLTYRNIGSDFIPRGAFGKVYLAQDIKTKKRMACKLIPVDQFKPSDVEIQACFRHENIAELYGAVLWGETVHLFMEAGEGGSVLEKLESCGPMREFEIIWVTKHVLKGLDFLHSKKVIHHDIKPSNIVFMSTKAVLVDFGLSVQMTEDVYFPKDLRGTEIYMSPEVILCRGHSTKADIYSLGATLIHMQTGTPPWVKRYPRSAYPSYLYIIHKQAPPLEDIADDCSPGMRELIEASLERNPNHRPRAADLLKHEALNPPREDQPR

On to `CC(C)(C)CNc1c(C#N)cnc2c(Cl)cc(N[C@H](c3cn(C4CC4)nn3)c3cncc4cnccc34)cc12` [Example 466, (S)-8-chloro-6-(((1-cyclopropyl-1H-1,2,3-triazol-4-yl)(2,7-naphthyridin-4-yl)methyl)amino)-4-(neopentylamino)-quinoline-3-carbonitrile], for which, in the assay on TNFα, the concentration giving a half-maximal response (EC50) was determined as 926 nM. At Human Cot, the IC50 was 28 nM.

Regarding `CC(C)(C)CNc1c(C#N)cnc2c(C#N)cc(N[C@H](c3cn(C4CC4)nn3)c3cccc4cnccc34)cc12` [Example 468, (S)-6-(((1-cyclopropyl-1H-1,2,3-triazol-4-yl)(isoquinolin-5-yl)methyl)amino)-4-(neopentylamino)quinoline-3,8-dicarbonitrile], in the assay on TNFα, the EC50 came out at 18 nM. In addition, the IC50 against Human Cot is 1 nM.

Take `CC(C)(C)CNc1c(C#N)cnc2c(C#N)cc(N[C@H](c3cn(C4(C(F)(F)F)CC4)nn3)c3cccc4ncccc34)cc12` [Example 469, (S)-4-(neopentylamino)-6-((quinolin-5-yl(1-(1-(trifluoromethyl)-cyclopropyl)-1H-1,2,3-triazol-4-yl)methyl)amino)quinoline-3,8-dicarbonitrile]: the EC50 in the assay with TNFα is 69 nM. The compound also displayed a half-inhibitory concentration (IC50) on Human Cot of 4 nM.

On to `CC(C)(C)CNc1c(C#N)cnc2c(C#N)cc(N[C@H](c3cn(C4(C(F)(F)F)CC4)nn3)c3cccc4cnccc34)cc12` [Example 470, (S)-6-((isoquinolin-5-yl(1-(1-(trifluoromethyl)cyclopropyl)-1H-1,2,3-triazol-4-yl)methyl)amino)-4-(neopentylamino)quinoline-3,8-dicarbonitrile], for which the EC50 in the assay on TNFα was 46 nM. The compound also returned an IC50 against Human Cot of 2 nM.

Turning to `Cc1nc(F)ccc1[C@H](Nc1cc(C#N)c2ncc(C#N)c(NCC(C)(C)C)c2c1)c1cn(C2(C(F)(F)F)CC2)nn1` [Example 471, (S)-6-(((6-fluoro-2-methylpyridin-3-yl)(1-(1-(trifluoromethyl)cyclopropyl)-1H-1,2,3-triazol-4-yl)methyl)amino)-4-(neopentyl-amino)quinoline-3,8-dicarbonitrile], the EC50 in the assay with TNFα was determined as 45 nM. On Human Cot, this compound yielded an IC50 of 3 nM.

On to `CC(C)(C)CNc1c(C#N)cnc2c(C#N)cc(N[C@H](c3cn(C4(C(F)(F)F)CC4)nn3)c3cccc4[nH]ncc34)cc12` [Example 472, (S)-6-(((1H-indazol-4-yl)(1-(1-(trifluoro-methyl)cyclopropyl)-1H-1,2,3-triazol-4-yl)methyl)amino)-4-(neopentylamino)-quinoline-3,8-dicarbonitrile], for which the half-maximal effective concentration (EC50) in the assay with TNFα worked out at 78 nM. Also, at Human Cot, the IC50 is 4 nM.

As for `Cc1nc(F)ccc1[C@H](Nc1cc(C#N)c2ncc(C#N)c(NCC(C)(C)C)c2c1)c1cn(C2(C(F)F)CC2)nn1` [Example 473, (S)-6-(((1-(1-(difluoromethyl)cyclopropyl)-1H-1,2,3-triazol-4-yl)(6-fluoro-2-methylpyridin-3-yl)methyl)amino)-4-(neopentylamino)quinoline-3,8-dicarbonitrile], in the assay with TNFα, the half-maximal effective concentration (EC50) was 26 nM. The same compound registered a 50% inhibitory concentration (IC50) against Human Cot of 2 nM.

As for `CC1(C)COCC[C@H]1Nc1c(C#N)cnc2c(C#N)cc(N[C@H](c3cn(C4(C(F)(F)F)CC4)nn3)c3cccc4ncsc34)cc12` [Example 474, 6-(((S)-benzo[d]thiazol-7-yl(1-(1-(trifluoromethyl)cyclopropyl)-1H-1,2,3-triazol-4-yl)methyl)amino)-4-(((R)-3,3-dimethyltetrahydro-2H-pyran-4-yl)amino)quinoline-3,8-dicarbonitrile], the EC50 in the assay with TNFα came out at 26 nM. The same compound returned an IC50 against Human Cot of 2 nM.

Regarding `CC1(C)COCC[C@@H]1Nc1c(C#N)cnc2c(C#N)cc(N[C@H](c3cn(C4(C(F)(F)F)CC4)nn3)c3cccc4ncsc34)cc12` [Example 475, 6-(((S)-benzo[d]thiazol-7-yl(1-(1-(trifluoromethyl)cyclopropyl)-1H-1,2,3-triazol-4-yl)methyl)amino)-4-(((S)-3,3-dimethyltetrahydro-2H-pyran-4-yl)amino)quinoline-3,8-dicarbonitrile], the 50% effective concentration (EC50) in the assay with TNFα is 258 nM. Besides, the midpoint of inhibition against Human Cot, the IC50, lay at 20 nM.

With `Cc1nc(F)ccc1[C@H](Nc1cc(Cl)c2ncc(C#N)c(NCC(C)(C)C)c2c1)c1cn(C2(C(N)=O)CC2)nn1` [Example 477, (S)-1-(4-(((8-chloro-3-cyano-4-(neopentylamino)quinolin-6-yl)amino)(6-fluoro-2-methylpyridin-3-yl)methyl)-1H-1,2,3-triazol-1-yl)cyclopropane-1-carboxamide], the EC50 in the assay on TNFα turned out to be 185 nM. Moreover, the IC50 against Human Cot came out at 2 nM.

For `Cc1nc(F)ccc1[C@H](Nc1cc(Cl)c2ncc(C#N)c(NCC(C)(C)C)c2c1)c1cn(C2(C#N)CCC2)nn1` [Example 479, (S)-8-chloro-6-(((1-(1-cyanocyclobutyl)-1H-1,2,3-triazol-4-yl)(6-fluoro-2-methylpyridin-3-yl)methyl)amino)-4-(neopentylamino)quinoline-3-carbonitrile], in the assay with TNFα, the EC50 worked out at 78 nM. Besides, at Human Cot, the midpoint of inhibition, the IC50, lay at 5 nM.

Regarding `Cc1nc(F)ccc1[C@H](Nc1cc(Cl)c2ncc(C#N)c(NCC(C)(C)C)c2c1)c1cn(C2(C)CC2)nn1` [Example 480, (S)-8-chloro-6-(((6-fluoro-2-methylpyridin-3-yl)(1-(1-methylcyclopropyl)-1H-1,2,3-triazol-4-yl)methyl)amino)-4-(neopentylamino)-quinoline-3-carbonitrile], in the assay with TNFα, the half-maximal effective concentration (EC50) was determined as 60 nM. This compound displayed an IC50 against Human Cot of 2 nM.

As for `CC(C)(C)CNc1c(C#N)cnc2c(F)cc(N[C@H](c3cn(C4(C(N)=O)CCC4)nn3)c3cccc4ncsc34)cc12` [Example 481, (S)-1-(4-(benzo[d]thiazol-7-yl((3-cyano-8-fluoro-4-(neopentylamino)quinolin-6-yl)-amino)methyl)-1H-1,2,3-triazol-1-yl)cyclobutane-1-carboxamide], the 50% effective concentration (EC50) with TNFα came to 391 nM. At Human Cot, this compound showed an IC50 of 6 nM.

Turning to `Cc1nc(F)ccc1[C@H](Nc1cc(Cl)c2ncc(C#N)c(NCC(C)(C)C)c2c1)c1cn(C2(CO)CC2)nn1` [Example 482, (S)-8-chloro-6-(((6-fluoro-2-methylpyridin-3-yl)(1-(1-(hydroxymethyl)cyclopropyl)-1H-1,2,3-triazol-4-yl)methyl)amino)-4-(neopentylamino)quinoline-3-carbonitrile], in the assay with TNFα, the EC50 was 86 nM. At Human Cot, this compound yielded an IC50 of 3 nM.

In the case of `Cn1cnc2cccc([C@H](Nc3cc(Cl)c4ncc(C#N)c(NCC(C)(C)C)c4c3)c3cn(C4(C(F)(F)F)CC4)nn3)c21` [Example 483, (S)-8-chloro-6-(((1-methyl-1H-benzo[d]imidazol-7-yl)(1-(1-(trifluoromethyl)cyclopropyl)-1H-1,2,3-triazol-4-yl)methyl)amino)-4-(neopentylamino)quinoline-3-carbonitrile], in the assay with TNFα, the EC50 amounted to 108 nM. At Human Cot, the concentration for half-maximal inhibition (IC50) turned out to be 7 nM.

For the compound `Cn1cnc2cccc([C@H](Nc3cc(C#N)c4ncc(C#N)c(NCC(C)(C)C)c4c3)c3cn(C4(C(F)(F)F)CC4)nn3)c21` [Example 484, (S)-6-(((1-methyl-1H-benzo[d]imidazol-7-yl)(1-(1-(trifluoromethyl)cyclopropyl)-1H-1,2,3-triazol-4-yl)methyl)amino)-4-(neopentylamino)quinoline-3,8-dicarbonitrile], in the assay on TNFα, the concentration for a half-maximal effect (EC50) stood at 73 nM. For the same compound, on Human Cot, the IC50 amounted to 3 nM.

(Values after patent publication US11066414B2, “Cot modulators and methods of use thereof” (Gilead Sciences, Inc., priority 2015, dated 2021).)
